This note sets out measurements from PubChem BioAssay AID256 (DTP/NCI, 2004).

Values joined by “and” are separate entries in the source; they are usually repeats but may differ in a detail not shown here. Equal values may be shown once. Inconclusive results and toxic doses are left out.

This test deals with CD2F1 mice, L1210 leukemia ip, survival T/C. As to the kind of experiment: NCI In Vivo Anticancer Drug Screen. Data for tumor model L1210 Leukemia (intraperitoneal) in CD2F1 (CDF1) mice. As to conditions: higher = longer survival. Summed up: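 Read-out first: treated-group measurement over vehicle-control measurement, expressed as a ratio. Animals bore a transplanted tumor line and were dosed with compound or vehicle.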

The mark [1] stands for this setting: endpoint: mean survival time, dose: 100.0 mg/kg/injection, schedule: Q01DX001 (ip), vehicle: saline.
Setting [2] is: endpoint: mean survival time, dose: 200.0 mg/kg/injection, schedule: Q01DX001 (ip), vehicle: saline.
Where [3] appears, read: endpoint: mean survival time, dose: 100.0 mg/kg/injection, schedule: Q01DX009 (ip), vehicle: saline with Tween-80.
Where [4] appears, read: endpoint: mean survival time, dose: 200.0 mg/kg/injection, schedule: Q01DX009 (ip), vehicle: saline with Tween-80.
[5] abbreviates: endpoint: mean survival time, dose: 400.0 mg/kg/injection, schedule: Q01DX009 (ip), vehicle: saline with Tween-80.
The mark [6] stands for this setting: endpoint: mean survival time, dose: 200.0 mg/kg/injection, schedule: Q04DX003 (ip), vehicle: saline with Tween-80.
[7] abbreviates: endpoint: mean survival time, dose: 400.0 mg/kg/injection, schedule: Q04DX003 (ip), vehicle: saline with Tween-80.
[8] abbreviates: endpoint: mean survival time, dose: 100.0 mg/kg/injection, schedule: Q01DX001 (ip), vehicle: saline with Tween-80.

For the compound `C(=N/NC1=NCCN1)/c1c2ccccc2c(/C=N\NC2=NCCN2)c2ccccc12`, the T/C by setting is: (endpoint: median survival time, dose: 0.37 mg/kg/injection, schedule: Q01DX009 (ip), vehicle: suspension in saline) 152 % of control; (endpoint: median survival time, dose: 1.56 mg/kg/injection, schedule: Q01DX009 (ip), vehicle: saline) 170 % of control; (endpoint: median survival time, dose: 3.0 mg/kg/injection, schedule: Q01DX009 (ip), vehicle: suspension in saline) 172 % of control; (endpoint: median survival time, dose: 3.12 mg/kg/injection, schedule: Q01DX009 (ip), vehicle: saline) 370 % of control; (endpoint: median survival time, dose: 6.25 mg/kg/injection, schedule: Q01DX009 (ip), vehicle: saline) 172 % of control; (endpoint: median survival time, dose: 12.5 mg/kg/injection, schedule: Q01DX009 (ip), vehicle: saline) 164 % of control and 180 % of control. The T/C by setting is: (endpoint: median survival time, dose: 25.0 mg/kg/injection, schedule: Q01DX009 (ip), vehicle: saline) 176 % of control; (endpoint: median survival time, dose: 48.0 mg/kg/injection, schedule: Q01DX009 (ip), vehicle: suspension in saline) 113 % of control.
In the case of `CC1CN1CCCNC(=O)C(=O)NCCCN1CC1C` (stereo unspecified), under setting [1], the T/C was 182 % of control.
Consider `NC1(C(=O)O)CCCC1.[Pd]`, for which the T/C by setting is: under setting [1], 100 % of control; under setting [2], 96 % of control.
With `CCCOS(=O)(=O)O`, the T/C by setting is: under setting [1], 106 % of control; under setting [2], 102 % of control; (endpoint: mean survival time, dose: 400.0 mg/kg/injection, schedule: Q01DX001 (ip), vehicle: saline) 106 % of control.
With `CC12CCCCC1=CC(=O)CC2` (stereo unspecified), the T/C runs as follows: under setting [3], 97 % of control; (endpoint: mean survival time, dose: 100.0 mg/kg/injection, schedule: Q04DX002 (ip), vehicle: saline with Tween-80) 96 % of control; under setting [4], 102 % of control; (endpoint: mean survival time, dose: 200.0 mg/kg/injection, schedule: Q04DX002 (ip), vehicle: saline with Tween-80) 112 % of control; (endpoint: mean survival time, dose: 400.0 mg/kg/injection, schedule: Q04DX002 (ip), vehicle: saline with Tween-80) 104 % of control.
`Cc1ccc([Si](C)Cl)cc1`: the T/C runs as follows: under setting [3], 96 % of control; under setting [4], 93 % of control.
Take `CC(C)C(C)/C=C/CC(C)C1CCC2C1(C)CCCC21C2CC3=C(CC(OC(=O)NC(N)=O)CC3)C21` (stereo unspecified): the T/C runs as follows: under setting [3], 95 % of control; under setting [4], 104 % of control; under setting [5], 87 % of control.
As to `COc1ccc2c3c1OC1C(=O)C4CC5(c6c(O)ccc(O)c64)C(C2)N(C)CCC315` (stereo unspecified), the T/C was 86 % of control under setting [6] and 86 % of control under setting [7].
As for `Cc1c(C)c2c(c(C)c1O)CC(CC(=O)CO)CO2` (stereo unspecified), the T/C by setting is: under setting [3], 93 % of control; under setting [4], 100 % of control; under setting [5], 93 % of control.
Consider `CCO/C=C1\SC(=S)N(C)C1=O`, for which the T/C was 90 % of control (endpoint: mean survival time, dose: 15.0 mg/kg/injection, schedule: Q01DX009 (ip), vehicle: saline with Tween-80); 87 % of control (endpoint: mean survival time, dose: 30.0 mg/kg/injection, schedule: Q01DX009 (ip), vehicle: saline with Tween-80); 98 % of control (endpoint: mean survival time, dose: 60.0 mg/kg/injection, schedule: Q01DX009 (ip), vehicle: saline with Tween-80).
Turning to `CCOP(=O)(OCC)/C(C#N)=C\c1ccc(O)c(OC)c1`, the T/C reads like this: (endpoint: mean survival time, dose: 100.0 mg/kg/injection, schedule: Q04DX003 (ip), vehicle: saline with Tween-80) 98 % of control; under setting [6], 101 % of control; under setting [7], 96 % of control.
Regarding `Cn1ncc2c(N)nc(-c3ccccn3)nc21`, the T/C was 97 % of control (endpoint: mean survival time, dose: 12.5 mg/kg/injection, schedule: Q01DX005 (ip), vehicle: water); 94 % of control (endpoint: mean survival time, dose: 25.0 mg/kg/injection, schedule: Q01DX005 (ip), vehicle: water); 91 % of control (endpoint: mean survival time, dose: 50.0 mg/kg/injection, schedule: Q01DX005 (ip), vehicle: water); 94 % of control (endpoint: mean survival time, dose: 100.0 mg/kg/injection, schedule: Q01DX005 (ip), vehicle: water).
As to `CNC(=O)c1cccc2c(Nc3ccc(NS(C)(=O)=O)cc3OC)c3cccc(C)c3nc12`, the T/C is 181 % of control (endpoint: median survival time, dose: 3.0 mg/kg/injection, schedule: Q01DX009 (ip), vehicle: water); 195 % of control (endpoint: median survival time, dose: 6.25 mg/kg/injection, schedule: Q01DX009 (ip), vehicle: water); 98 % of control (endpoint: median survival time, dose: 12.0 mg/kg/injection, schedule: Q01DX009 (ip), vehicle: water); 160 % of control (endpoint: median survival time, dose: 12.5 mg/kg/injection, schedule: Q01DX005 (oral), vehicle: water); 102 % of control (endpoint: median survival time, dose: 12.5 mg/kg/injection, schedule: Q01DX009 (ip), vehicle: water); 102 % of control (endpoint: median survival time, dose: 25.0 mg/kg/injection, schedule: Q01DX005 (oral), vehicle: water). Under “endpoint: median survival time, dose: 25.0 mg/kg/injection, schedule: Q01DX009 (ip), vehicle: water”, the T/C is 87 % of control.
Take `CNC(=O)/C(=C\c1ccccc1Cl)NC(C)=O`: the T/C under setting [8] is 97 % of control; the T/C (endpoint: mean survival time, dose: 200.0 mg/kg/injection, schedule: Q01DX001 (ip), vehicle: saline with Tween-80) is 93 % of control; the T/C (endpoint: mean survival time, dose: 400.0 mg/kg/injection, schedule: Q01DX001 (ip), vehicle: saline with Tween-80) was 93 % of control.
With `C=CS(=O)(=O)CCc1ccccc1`, the T/C was 101 % of control (endpoint: mean survival time, dose: 50.0 mg/kg/injection, schedule: Q01DX001 (ip), vehicle: Klucel (hydroxypropylcellulose) (HPC)); 111 % of control (endpoint: mean survival time, dose: 100.0 mg/kg/injection, schedule: Q01DX001 (ip), vehicle: Klucel (hydroxypropylcellulose) (HPC)); 108 % of control (endpoint: mean survival time, dose: 200.0 mg/kg/injection, schedule: Q01DX001 (ip), vehicle: Klucel (hydroxypropylcellulose) (HPC)).
Turning to `Oc1ccc(CCl)cc1O`, the T/C (endpoint: mean survival time, dose: 25.0 mg/kg/injection, schedule: Q01DX001 (ip), vehicle: saline with Tween-80) is 107 % of control; the T/C (endpoint: mean survival time, dose: 50.0 mg/kg/injection, schedule: Q01DX001 (ip), vehicle: saline with Tween-80) is 100 % of control; the T/C under setting [8] is 89 % of control and 103 % of control.
For the compound `Brc1cnc(Br)s1`, the T/C was 92 % of control (endpoint: mean survival time, dose: 13.0 mg/kg/injection, schedule: Q04DX002 (ip), vehicle: Klucel (hydroxypropylcellulose) (HPC)); 98 % of control (endpoint: mean survival time, dose: 20.0 mg/kg/injection, schedule: Q04DX002 (ip), vehicle: Klucel (hydroxypropylcellulose) (HPC)); 98 % of control (endpoint: mean survival time, dose: 30.0 mg/kg/injection, schedule: Q04DX002 (ip), vehicle: Klucel (hydroxypropylcellulose) (HPC)); 95 % of control (endpoint: mean survival time, dose: 45.0 mg/kg/injection, schedule: Q04DX002 (ip), vehicle: Klucel (hydroxypropylcellulose) (HPC)).
Take `NC(N)=Nc1nc2ccccc2[nH]1`: the T/C by setting is: (endpoint: mean survival time, dose: 7.0 mg/kg/injection, schedule: Q01DX009 (ip), vehicle: saline) 104 % of control; (endpoint: mean survival time, dose: 14.0 mg/kg/injection, schedule: Q01DX009 (ip), vehicle: saline) 104 % of control; (endpoint: mean survival time, dose: 28.0 mg/kg/injection, schedule: Q01DX009 (ip), vehicle: saline) 98 % of control.
Turning to `CN(C)c1ccc(N=Nc2ccc(S(=O)(=O)O)cc2)cc1.CN(C)c1ccc(N=Nc2ccc(S(=O)(=O)O)cc2)cc1.O.O.[NH-]C1CCCCC1[NH-].[Pt+2]`, the T/C is 96 % of control (endpoint: median survival time, dose: 3.12 mg/kg/injection, schedule: Q04DX003 (ip), vehicle: saline); 106 % of control (endpoint: median survival time, dose: 6.25 mg/kg/injection, schedule: Q04DX003 (ip), vehicle: saline); 101 % of control (endpoint: median survival time, dose: 12.5 mg/kg/injection, schedule: Q04DX003 (ip), vehicle: saline); 100 % of control (endpoint: median survival time, dose: 25.0 mg/kg/injection, schedule: Q04DX003 (ip), vehicle: saline); 98 % of control (endpoint: median survival time, dose: 50.0 mg/kg/injection, schedule: Q04DX003 (ip), vehicle: saline); 105 % of control (endpoint: median survival time, dose: 100.0 mg/kg/injection, schedule: Q04DX003 (ip), vehicle: saline). For the same compound, where the note is “endpoint: median survival time, dose: 200.0 mg/kg/injection, schedule: Q04DX003 (ip), vehicle: saline”, the T/C is 115 % of control.
Regarding `CC1(C(=O)O)CC1(C)C(=O)O` (stereo unspecified), the T/C under setting [3] was 93 % of control, the T/C under setting [4] is 91 % of control and the T/C under setting [5] is 90 % of control.
Consider `CCCCCC(=O)SCC(=O)OCC(=O)[C@]1(O)Cc2c(O)c3c(c(O)c2[C@@H](OC2CC(N)C(O)C(C)O2)C1)C(=O)c1c(OC)cccc1C3=O` (stereo partly specified), for which the T/C by setting is: (endpoint: mean survival time, dose: 0.39 mg/kg/injection, schedule: Q01DX005 (ip), vehicle: water) 115 % of control and 110 % of control; (endpoint: mean survival time, dose: 0.78 mg/kg/injection, schedule: Q01DX005 (ip), vehicle: water) 116 % of control and 124 % of control; (endpoint: mean survival time, dose: 1.56 mg/kg/injection, schedule: Q01DX005 (ip), vehicle: water) 118 % of control; (endpoint: mean survival time, dose: 6.25 mg/kg/injection, schedule: Q01DX005 (ip), vehicle: water) 104 % of control.
